Experiments:
Type in all cases: functional
[1] = test system: Hordeum vulgare subsp. vulgare; assay: Amylase induction activity in barley aleurone layer at 0.01 uM
[2] = test system: Hordeum vulgare subsp. vulgare; assay: Amylase induction activity in barley aleurone layer at 0.1 uM
[3] = test system: Hordeum vulgare subsp. vulgare; assay: Amylase induction activity in barley aleurone layer at 1 uM

Activity [1]: 0
Activity [2]: 1
Activity [3]: 4
Structure (SMILES): CC1=C(C(=O)O)[C@H]2[C@@H](C(C)C)CC[C@]1(C)[C@H]2CO

Reference: ChEMBL document CHEMBL1150997, “Novel compound stimulates amylase induction in barley seeds” (Bioorg Med Chem Lett, 1994)
